In the supplement of paper PMC10307832:

Key:
Test in all cases: relative viability (nuclei count vs DMSO), 5 days (fraction); higher = more cells survive
[1] = compound: CCn1c(-c2nonc2N)nc2c(C#CC(C)(C)O)ncc(OC[C@H]3CCCNC3)c21 + Nc1ncn([C@H]2C[C@H](O)[C@@H](CO)O2)c(=O)n1 [Decitabine] (partner 2 µM)
How it was run: (§1)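 Medians of duplicate plates are given as relative viability. That measure is the nuclei count in treated wells divided by the count in vehicle wells. Counts were taken on 4× images of lung cancer cell lines in 1536-well plates, 5 days after pin-tool dosing the day after seeding with one drug alone or a fixed anchor-drug dose plus five library-drug doses (not always all listed) in √10 steps.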

BAM7 + Lapatinib = compound: CCOC1=CC=CC=C1N=NC2=C(NN(C2=O)C3=NC(=CS3)C4=CC=CC=C4)C [BAM7] + CS(=O)(=O)CCNCc1ccc(-c2ccc3ncnc(Nc4ccc(OCc5cccc(F)c5)c(Cl)c4)c3c2)o1 [Lapatinib] (partner 2 µM)
How it was run: as §1

[2] = compound: CCn1c(-c2nonc2N)nc2c(C#CC(C)(C)O)ncc(OC[C@H]3CCCNC3)c21 + Cc1cc(Nc2cc(N3CCN(C)CC3)nc(Sc3ccc(NC(=O)C4CC4)cc3)n2)n[nH]1 [Tozasertib] (partner 0.1 µM)
How it was run: as §1

BAM7 + Olaparib = compound: CCOC1=CC=CC=C1N=NC2=C(NN(C2=O)C3=NC(=CS3)C4=CC=CC=C4)C [BAM7] + O=C(c1cc(Cc2n[nH]c(=O)c3ccccc23)ccc1F)N1CCN(C(=O)C2CC2)CC1 [Olaparib] (partner 8 µM)
How it was run: as §1

Cell Line	relative viability ([1]; first compound 0.01 µM)	relative viability ([1]; first compound 0.03162 µM)	relative viability ([1]; first compound 0.1 µM)	relative viability ([1]; first compound 0.3162 µM)	relative viability ([1]; first compound 1 µM)	relative viability (BAM7 + Lapatinib; first compound 0.5 µM)	relative viability (BAM7 + Lapatinib; first compound 5 µM)	relative viability (BAM7 + Lapatinib; first compound 15.81 µM)	relative viability (BAM7 + Lapatinib; first compound 50 µM)	relative viability ([2]; first compound 0.01 µM)	relative viability ([2]; first compound 0.03162 µM)	relative viability ([2]; first compound 0.1 µM)	relative viability ([2]; first compound 0.3162 µM)	relative viability ([2]; first compound 1 µM)	relative viability (BAM7 + Olaparib; first compound 0.5 µM)	relative viability (BAM7 + Olaparib; first compound 5 µM)	relative viability (BAM7 + Olaparib; first compound 15.81 µM)	relative viability (BAM7 + Olaparib; first compound 50 µM)
HCC-827	0.348	0.319	0.331	0.308	0.308	0.205	0.2	0.205	0.202	0.391	0.47	0.383	0.449	0.43	0.0377	0.627	0.62	0.649
HOP-62	0.18	0.22	0.246	0.193	0.226	1.09	1.27	0.969	0.986	0.369	0.316	0.308	0.406	0.404	0.517	0.33	0.449	0.518
IA-LM	–	–	–	–	–	0.766	0.816	0.784	0.748	–	–	–	–	–	0.912	0.794	0.797	0.775
LC-2-ad	0.776	0.824	0.875	0.705	0.7	1.09	0.948	0.933	0.859	0.457	0.442	0.474	0.44	0.451	0.676	0.633	0.634	0.646
LCLC-97TM1	0.2	0.226	0.268	0.235	0.268	1	1.21	1.04	1.31	0.203	0.31	0.211	0.271	0.204	0.362	0.472	–	0.432
LCLC-103H	0.726	0.797	0.737	0.716	0.781	–	–	–	–	0.41	0.555	0.432	0.472	0.453	0.77	0.795	0.72	0.686
LK-2	0.267	0.302	0.294	0.312	0.307	1.22	1.03	1.02	1.11	0.165	0.171	–	–	0.184	0.885	0.891	0.918	0.666
LOU-NH91	0.821	0.788	0.891	0.73	0.779	0.749	0.822	0.767	0.819	0.702	0.763	0.634	0.665	0.732	0.949	0.955	0.894	0.893
LU99A	0.884	0.971	0.866	0.826	0.883	0.975	0.788	1.09	1.03	0.296	0.268	0.296	0.308	0.315	0.272	0.257	0.312	0.254
LXF-289	0.42	0.369	0.352	0.35	0.364	0.947	0.951	0.913	0.851	0.218	0.194	0.169	0.184	0.197	1.17	1.05	1.02	1.09
NCI-H23	0.287	0.332	0.307	0.27	0.302	1.48	1.1	0.997	1.26	0.398	0.438	0.568	0.384	0.432	0.374	0.271	0.258	0.291
NCI-H322M	0.785	0.721	0.617	0.593	0.575	0.659	0.593	0.577	0.572	0.465	0.419	0.423	0.42	0.448	0.762	0.714	0.654	0.641
NCI-H441	0.226	0.226	0.271	0.197	0.29	–	–	–	–	0.699	0.53	0.538	0.57	0.56	0.76	0.523	0.561	0.574
NCI-H522	0.656	0.675	0.682	0.679	0.716	–	–	–	–	0.56	0.55	0.52	0.517	0.564	0.725	0.585	0.61	0.643
NCI-H1299	–	–	–	–	–	0.835	1.01	0.954	0.964	–	–	–	–	–	0.961	1.02	0.981	0.923
NCI-H1563	–	–	–	–	–	1.01	0.962	0.969	1.05	–	–	–	–	–	–	–	–	–
NCI-H1623	–	–	–	–	–	–	–	–	–	0.433	0.468	0.446	0.404	0.492	–	–	–	–
NCI-H1648	0.565	0.482	0.464	0.491	0.498	–	–	–	–	–	0.527	0.466	0.444	0.574	0.772	0.799	0.322	0.558
NCI-H1703	–	–	–	–	–	1.1	1.17	0.936	1.2	–	–	–	–	–	0.497	0.454	0.357	0.62
NCI-H1792	0.558	0.499	0.547	0.419	0.518	0.963	0.914	1.09	0.842	–	–	–	–	–	0.42	0.374	0.391	0.425
NCI-H2228	–	–	–	–	–	1.31	1.19	1.05	1.1	0.222	0.278	0.229	0.246	0.252	0.802	0.932	0.547	0.585
NCI-H2342	0.747	0.692	0.773	0.667	0.625	–	–	–	–	0.521	0.588	0.466	0.572	0.612	0.49	0.46	0.347	0.341
SW 900	0.425	0.442	0.502	0.484	0.42	–	–	–	–	0.626	0.747	0.646	0.561	0.579	–	0.847	–	0.786
